We go through 22 compounds from US20220151236A1, “NOVEL OXADIAZOLE COMPOUNDS FOR CONTROLLING OR PREVENTING PHYTOPATHOGENIC FUNGI” (PI INDUSTRIES LTD., priority 2019, published 2022).

Bounds are passed on as bounds.

In one assay the test system is Phakopsora pachyrhizi. Description: Phakopsora pachyrhizi Test on Soybean (preventive activity, greenhouse). The format is in vivo. Conditions: preventive spray on young Soybean plants, inoculated one day after treatment, rated 3, 7, 10 and 15 days after application, read-out: Efficacy (% control), disease severity compared to the untreated check. Summed up:
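Preventive greenhouse test: young soybean plants sprayed with compound in 2% DMSO/acetone plus emulsified water at stated rates, inoculated one day later with 2×10^5 P. pachyrhizi conidia, held at 22-24° C and 80-90% RH. Disease severity (0-100%) rated 3, 7, 10 and 15 days after application; % control relative to untreated plants.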

In the next assay the test system is Pyricularia Oryzae. Description: microbe, parasite or virus in culture. The format is cell-based. To be noted: 168 h, read-out: control (radial growth compared to the untreated check).
The subject of the next assay is Colletotrichum capsici. Description: Colletotrichum capsici (Anthracnose): radial mycelial growth on potato dextrose agar. The format is cell-based. To be noted: Colletotrichum truncatum, 168 h, 25° C., 60% relative humidity, seven days, read-out: control (radial growth compared to the untreated check).
Another assay deals with Botrytis cinerea. Description: Botrytis cinerea (Gray Mold): radial mycelial growth on potato dextrose agar. The format is cell-based. To be noted: 300 ppm, 22° C., 90% relative humidity, seven days.
Another assay has as its system Alternaria solani. Description: Alternaria solani (Early Blight of Tomato/Potato): radial mycelial growth on potato dextrose agar. The format is cell-based. To be noted: 168 h, potato dextrose agar, 25° C., 60% relative humidity, seven days, read-out: control (radial growth compared to the untreated check). The method, then: Compounds were dissolved in 0.3% dimethyl sulfoxide and then added to potato dextrose agar medium just prior to dispensing it into petri dishes. 5 mL medium with the compound in the desired concentration was dispensed into 60 mm sterile petri-plates. After solidification each plate was seeded with a 5 mm size mycelial disc taken from the periphery of an actively growing virulent culture plate. Plates were incubated in growth chambers at 25° C. temperature and 60% relative humidity for seven days and then the radial growth was measured and compared to that of the untreated control. Compounds 2 85 89 92 94 108 113 114 131 138 142 143

Regarding `CN(C(=O)c1cn2ccc(-c3noc(C(F)(F)F)n3)cc2n1)c1ccc(Cl)cc1` [Compound 12, N-(4-chlorophenyl)-N-methyl-7-(5-(trifluoromethyl)-1,2,4-oxadiazol-3-yl)imidazo[1,2-a]pyridine-2-carboxamide], the pest or weed control at 500 ppm with Phakopsora pachyrhizi is ≥ 70%. Further, the inhibition of growth at 300 ppm in the assay with Pyricularia Oryzae was ≥ 70%. On to `O=C(c1cn2ccc(-c3noc(C(F)(F)F)n3)cc2n1)N1CCC1` [Compound 33, azetidin-1-yl(7-(5-(trifluoromethyl)-1,2,4-oxadiazol-3-yl)imidazo[1,2-a]pyridin-2-yl)methanone], for which the pest or weed control at 500 ppm with Phakopsora pachyrhizi was ≥ 70%. The inhibition of growth at 300 ppm in the assay with Pyricularia Oryzae was ≥ 70%. Consider `COc1cccc(SCc2cn3ccc(-c4noc(C(F)(F)F)n4)cc3n2)c1` [Compound 46, 3-(2-(((3-methoxyphenyl)thio)methyl)imidazo[1,2-a]pyridin-7-yl)-5-(trifluoromethyl)-1,2,4-oxadiazole], for which the inhibition of growth at 300 ppm in the assay on Colletotrichum capsici was ≥ 70%. The pest or weed control at 500 ppm in the assay on Phakopsora pachyrhizi is ≥ 70%. In the case of `FC(F)(F)c1nc(-c2ccn3cc(CSc4ccccc4)nc3c2)no1` [Compound 50, 3-(2-((phenylthio)methyl)imidazo[1,2-a]pyridin-7-yl)-5-(trifluoromethyl)-1,2,4-oxadiazole], in the assay on Colletotrichum capsici, the inhibition of growth at 300 ppm was ≥ 70%.

Take `COCCNC(=O)c1cn2cc(-c3noc(C(F)(F)F)n3)ccc2n1` [Compound 65, N-(2-methoxyethyl)-6-(5-(trifluoromethyl)-1,2,4-oxadiazol-3-yl)imidazo[1,2-a]pyridine-2-carboxamide]: in the assay on Colletotrichum capsici, the inhibition of growth at 300 ppm was ≥ 70%. Further, the pest or weed control at 500 ppm in the assay with Phakopsora pachyrhizi was ≥ 70%. Take `O=C(c1cn2cc(-c3noc(C(F)(F)F)n3)ccc2n1)N1CCC1` [Compound 69, azetidin-1-yl(6-(5-(trifluoromethyl)-1,2,4-oxadiazol-3-yl)imidazo[1,2-a]pyridin-2-yl)methanone]: in the assay with Colletotrichum capsici, the inhibition of growth at 300 ppm is ≥ 70%. Besides, the pest or weed control at 500 ppm in the assay with Phakopsora pachyrhizi is ≥ 70%. Take `CCOCc1cn2cc(-c3noc(C(F)(F)F)n3)ccc2n1` [Compound 80, 3-(2-(ethoxymethyl)imidazo[1,2-a]pyridin-6-yl)-5-(trifluoromethyl)-1,2,4-oxadiazole]: in the assay with Pyricularia Oryzae, the inhibition of growth at 300 ppm is ≥ 70%. For the same compound, in the assay on Botrytis cinerea, the “control (radial growth compared to the untreated check)” value is reported as ≥ 70%. `O=C(NCc1cn2cc(-c3noc(C(F)(F)F)n3)ccc2n1)c1ccccn1` [Compound 87, N-((6-(5-(trifluoromethyl)-1,2,4-oxadiazol-3-yl)imidazo[1,2-a]pyridin-2-yl)methyl)picolinamide]: the pest or weed control at 500 ppm in the assay on Phakopsora pachyrhizi was ≥ 70%. The inhibition of growth at 300 ppm with Pyricularia Oryzae is ≥ 70%. As for `O=C(NCc1cn2cc(-c3noc(C(F)(F)F)n3)ccc2n1)c1cocn1` [Compound 92, N-((6-(5-(trifluoromethyl)-1,2,4-oxadiazol-3-yl)imidazo[1,2-a]pyridin-2-yl)methyl)oxazole-4-carboxamide], the inhibition of growth at 300 ppm in the assay with Pyricularia Oryzae and in the assay on Alternaria solani was ≥ 70% throughout. For the compound `FC(F)(F)c1nc(-c2ccc3nc(CSc4cccc(Cl)c4)cn3c2)no1` [Compound 103, 3-(2-(((3-chlorophenyl)thio)methyl)imidazo[1,2-a]pyridin-6-yl)-5-(trifluoromethyl)-1,2,4-oxadiazole], the pest or weed control at 500 ppm with Phakopsora pachyrhizi was ≥ 70%. Further, in the assay with Pyricularia Oryzae, the inhibition of growth at 300 ppm was ≥ 70%.

As to `FC(F)(F)c1nc(-c2ccc3nc(CSc4cc(Cl)cc(Cl)c4)cn3c2)no1` [Compound 111, 3-(2-(((3,5-dichlorophenyl)thio)methyl)imidazo[1,2-a]pyridin-6-yl)-5-(trifluoromethyl)-1,2,4-oxadiazole], in the assay on Colletotrichum capsici, the inhibition of growth at 300 ppm is ≥ 70%. The pest or weed control at 500 ppm in the assay on Phakopsora pachyrhizi was ≥ 70%.

Take `CC(C)CSCc1cn2cc(-c3noc(C(F)(F)F)n3)ccc2n1` [Compound 112, 3-(2-((isobutylthio)methyl)imidazo[1,2-a]pyridin-6-yl)-5-(trifluoromethyl)-1,2,4-oxadiazole]: the inhibition of growth at 300 ppm in the assay with Colletotrichum capsici was ≥ 70%. The pest or weed control at 500 ppm in the assay with Phakopsora pachyrhizi was ≥ 70%. Take `FC(F)(F)c1nc(-c2ccc3nc(CSC4CCCC4)cn3c2)no1` [Compound 113, 3-(2-((cyclopentylthio)methyl)imidazo[1,2-a]pyridin-6-yl)-5-(trifluoromethyl)-1,2,4-oxadiazole]: the inhibition of growth at 300 ppm in the assay on Pyricularia Oryzae and with Alternaria solani was ≥ 70% in each case.

Consider `FC(F)(F)c1nc(-c2ccc3nc(CSC4CCCCC4)cn3c2)no1` [Compound 114, 3-(2-((cyclohexylthio)methyl)imidazo[1,2-a]pyridin-6-yl)-5-(trifluoromethyl)-1,2,4-oxadiazole], for which the inhibition of growth at 300 ppm in the assay on Pyricularia Oryzae and with Alternaria solani was ≥ 70% each time. Regarding `O=S(=O)(Cc1cn2cc(-c3noc(C(F)(F)F)n3)ccc2n1)c1ccccc1` [Compound 116, 3-(2-((phenylsulfonyl)methyl)imidazo[1,2-a]pyridin-6-yl)-5-(trifluoromethyl)-1,2,4-oxadiazole], the inhibition of growth at 300 ppm in the assay on Colletotrichum capsici is ≥ 70%. In addition, the pest or weed control at 500 ppm with Phakopsora pachyrhizi is ≥ 70%. In the case of `O=S(=O)(Cc1cn2cc(-c3noc(C(F)(F)F)n3)ccc2n1)c1ccc(Cl)c(Cl)c1` [Compound 117, 3-(2-(((3,4-dichlorophenyl)sulfonyl)methyl)imidazo[1,2-a]pyridin-6-yl)-5-(trifluoromethyl)-1,2,4-oxadiazole], the inhibition of growth at 300 ppm in the assay with Colletotrichum capsici was ≥ 70%. For the compound `COCCS(=O)(=NC(=O)Cc1cn2cc(-c3noc(C(F)(F)F)n3)ccc2n1)c1ccc(Cl)cc1` (stereo not drawn) [Compound 136, N-((4-chlorophenyl)(2-methoxyethyl)(oxo)-λ^6-sulfaneylidene)-2-(6-(5-(trifluoromethyl)-1,2,4-oxadiazol-3-yl)imidazo[1,2-a]pyridin-2-yl)acetamide], the inhibition of growth at 300 ppm in the assay with Pyricularia Oryzae is ≥ 70%. As to `COc1ccc(S(C)(=O)=NC(=O)Cc2cn3cc(-c4noc(C(F)(F)F)n4)ccc3n2)cc1` (stereo not drawn) [Compound 138, N-((4-methoxyphenyl)(methyl)(oxo)-λ^6-sulfaneylidene)-2-(6-(5-(trifluoromethyl)-1,2,4-oxadiazol-3-yl)imidazo[1,2-a]pyridin-2-yl)acetamide], the inhibition of growth at 300 ppm in the assay with Pyricularia Oryzae and in the assay with Alternaria solani was ≥ 70% in each case.

On to `CS(=O)(=NC(=O)Cc1cn2cc(-c3noc(C(F)(F)F)n3)ccc2n1)c1cc(Cl)cc(Cl)c1` (stereo not drawn) [Compound 140, N-((3,5-dichlorophenyl)(methyl)(oxo)-λ^6-sulfaneylidene)-2-(6-(5-(trifluoromethyl)-1,2,4-oxadiazol-3-yl)imidazo[1,2-a]pyridin-2-yl)acetamide], for which the inhibition of growth at 300 ppm with Pyricularia Oryzae was ≥ 70%. As to `CS(=O)(=NC(=O)Cc1cn2cc(-c3noc(C(F)(F)F)n3)ccc2n1)c1ccc(Br)cc1` (stereo not drawn) [Compound 142, N-((4-bromophenyl)(methyl)(oxo)-λ^6-sulfaneylidene)-2-(6-(5-(trifluoromethyl)-1,2,4-oxadiazol-3-yl)imidazo[1,2-a]pyridin-2-yl)acetamide], the inhibition of growth at 300 ppm with Pyricularia Oryzae and with Alternaria solani was ≥ 70% in each case. For the compound `COc1ccnc(S(C)(=O)=NC(=O)Cc2cn3cc(-c4noc(C(F)(F)F)n4)ccc3n2)c1` (stereo not drawn) [Compound 146, N-((4-methoxypyridin-2-yl)(methyl)(oxo)-λ^6-sulfaneylidene)-2-(6-(5-(trifluoromethyl)-1,2,4-oxadiazol-3-yl)imidazo[1,2-a]pyridin-2-yl)acetamide], the inhibition of growth at 300 ppm with Pyricularia Oryzae and in the assay with Alternaria solani was ≥ 70% in each case.

With `CS(=O)(Cc1cn2ccc(-c3noc(C(F)(F)F)n3)cc2n1)=NC(=O)c1ccccc1C(F)(F)F` (stereo not drawn) [Compound 161, N-(methyl(oxo)((7-(5-(trifluoromethyl)-1,2,4-oxadiazol-3-yl)imidazo[1,2-a]pyridin-2-yl)methyl)-λ^6-sulfanylidene)-2-(trifluoromethyl)benzamide], the inhibition of growth at 300 ppm with Pyricularia Oryzae was ≥ 70%.
